ChEMBL document CHEMBL5104090, “Recent advances in the medicinal chemistry of carbonic anhydrase inhibitors” (Eur J Med Chem, 2021)
Each block holds one compound with its values, some of them ahead of it.

Experiments:
Carbonic anhydrase 12 [1] = biological target: T1, Carbonic anhydrase 12 (Homo sapiens, UniProt O43570)
Carbonic anhydrase 2 [2] = biological target: T2, Carbonic anhydrase 2 (Homo sapiens, UniProt P00918)
Carbonic anhydrase 1 [3] = biological target: T3, Carbonic anhydrase 1 (Homo sapiens, UniProt P00915)
Carbonic anhydrase 9 [4] = biological target: T4, Carbonic anhydrase 9 (Homo sapiens, UniProt Q16790)
Carbonic anhydrase 1 [5] = biological target: T3, Carbonic anhydrase 1; remark: listed apart in the source
Carbonic anhydrase 2 [6] = biological target: T2, Carbonic anhydrase 2; remark: listed apart in the source
Carbonic anhydrase 12 [7] = biological target: T1, Carbonic anhydrase 12; remark: listed apart in the source
Carbonic anhydrase 9 [8] = biological target: T4, Carbonic anhydrase 9; remark: listed apart in the source
Carbonic anhydrase 4 [9] = biological target: T5, Carbonic anhydrase 4 (Homo sapiens, UniProt P22748)
Carbonic anhydrase 4 [10] = biological target: T5, Carbonic anhydrase 4; remark: listed apart in the source
Carbonic anhydrase 2 [11] = biological target: T2, Carbonic anhydrase 2; remark: listed apart in the source
Carbonic anhydrase 9 [12] = biological target: T4, Carbonic anhydrase 9; remark: listed apart in the source
Carbonic anhydrase 1 [13] = biological target: T3, Carbonic anhydrase 1; remark: listed apart in the source
Carbonic anhydrase 12 [14] = biological target: T1, Carbonic anhydrase 12; remark: listed apart in the source
Carbonic anhydrase 9 [15] = biological target: T4, Carbonic anhydrase 9; remark: listed apart in the source
Carbonic anhydrase 1 [16] = biological target: T3, Carbonic anhydrase 1; remark: listed apart in the source
Ca9-22 = experiment: cells; type: functional; settings: Homo sapiens, time 48 hrs
Description: Cytotoxicity against human Ca9-22 cells assessed as cell growth inhibition measured after 48 hrs by MTT assay

T3 sequence (P00915 whole entry): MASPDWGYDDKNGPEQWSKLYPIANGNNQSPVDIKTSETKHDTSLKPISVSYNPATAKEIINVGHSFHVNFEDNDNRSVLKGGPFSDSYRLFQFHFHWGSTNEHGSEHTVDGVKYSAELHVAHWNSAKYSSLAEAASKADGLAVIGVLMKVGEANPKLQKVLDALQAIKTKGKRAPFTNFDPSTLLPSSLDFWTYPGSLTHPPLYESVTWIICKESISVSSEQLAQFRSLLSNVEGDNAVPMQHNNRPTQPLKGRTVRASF
T5 sequence (P22748 whole entry): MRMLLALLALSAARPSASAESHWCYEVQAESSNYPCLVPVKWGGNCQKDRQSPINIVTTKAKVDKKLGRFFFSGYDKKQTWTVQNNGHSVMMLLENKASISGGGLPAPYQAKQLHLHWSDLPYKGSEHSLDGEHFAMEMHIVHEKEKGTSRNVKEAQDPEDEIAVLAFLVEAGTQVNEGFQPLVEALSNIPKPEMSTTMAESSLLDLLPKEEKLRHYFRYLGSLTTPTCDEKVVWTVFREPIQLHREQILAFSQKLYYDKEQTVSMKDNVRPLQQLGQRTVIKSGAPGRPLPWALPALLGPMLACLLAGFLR
T1 sequence (O43570 whole entry): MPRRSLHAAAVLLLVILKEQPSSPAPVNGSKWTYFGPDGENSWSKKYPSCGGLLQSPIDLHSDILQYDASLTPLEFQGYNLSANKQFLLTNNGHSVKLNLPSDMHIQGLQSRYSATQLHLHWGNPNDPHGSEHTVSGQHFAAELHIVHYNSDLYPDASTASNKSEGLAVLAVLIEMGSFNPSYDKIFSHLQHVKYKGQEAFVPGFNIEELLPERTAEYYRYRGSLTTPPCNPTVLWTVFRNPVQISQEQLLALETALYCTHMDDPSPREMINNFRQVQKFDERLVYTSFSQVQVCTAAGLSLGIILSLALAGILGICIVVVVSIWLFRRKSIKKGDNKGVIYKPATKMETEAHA

- IC50 (Carbonic anhydrase 12 [1]): > 360 nM
- IC50 (Carbonic anhydrase 2 [2]): > 360 nM
- IC50 (Carbonic anhydrase 1 [3]): > 360 nM
- IC50 (Carbonic anhydrase 9 [4]): > 360 nM
SMILES: NS(=O)(=O)c1ccc2[nH]c(-c3ccccn3)nc2c1

- Ki (Carbonic anhydrase 1 [5]): > 100000 nM
- Ki (Carbonic anhydrase 2 [6]): > 100000 nM
SMILES: O=S1(=O)CC=Cc2ccc(Br)cc2O1

- Ki (Carbonic anhydrase 1 [5]): > 100000 nM
- Ki (Carbonic anhydrase 2 [6]): > 100000 nM
SMILES: O=S1(=O)CC=Cc2cccc(-c3ccc(C(F)(F)F)cc3)c2O1

- Ki (Carbonic anhydrase 12 [7]): 17.2 nM
- Ki (Carbonic anhydrase 9 [8]): 19.3 nM
SMILES: NS(=O)(=O)c1ccc(CCn2c(SCc3ccc(Cl)cc3)nc3ccccc3c2=O)cc1

- IC50 (Carbonic anhydrase 12 [1]): > 360 nM
- IC50 (Carbonic anhydrase 2 [2]): > 360 nM
- IC50 (Carbonic anhydrase 1 [3]): > 360 nM
- IC50 (Carbonic anhydrase 9 [4]): > 360 nM
SMILES: Cn1c(-c2ccccc2)nc2cc(C(=O)NO)ccc21

- Ki (Carbonic anhydrase 12 [7]): 17.2 nM
SMILES: NS(=O)(=O)c1ccc(CCn2c(SCc3ccc([N+](=O)[O-])cc3)nc3ccccc3c2=O)cc1

- Ki (Carbonic anhydrase 4 [9]): 64.5 nM
SMILES: NS(=O)(=O)c1cccc(N/C=C/C(=O)c2ccco2)c1

- Ki (Carbonic anhydrase 4 [10]): > 10000 nM
- Ki (Carbonic anhydrase 2 [11]): > 10000 nM
- Ki (Carbonic anhydrase 9 [12]): > 10000 nM
- Ki (Carbonic anhydrase 1 [13]): > 10000 nM
SMILES: O=C(O)c1ccc2c(c1)C(=O)N(c1ccccc1)C2=O

- Ki (Carbonic anhydrase 4 [10]): 317 nM
- Ki (Carbonic anhydrase 2 [11]): 25.9 nM
- Ki (Carbonic anhydrase 9 [12]): 54.1 nM
- Ki (Carbonic anhydrase 1 [13]): 54.1 nM
SMILES: COC(=O)c1ccc2c(c1)C(=O)N(CCc1ccc(S(N)(=O)=O)cc1)C2=O

- Ki (Carbonic anhydrase 1 [5]): > 100000 nM
- Ki (Carbonic anhydrase 2 [6]): > 100000 nM
SMILES: O=S1(=O)CC=Cc2cccc(-c3ccccc3)c2O1

- Ki (Carbonic anhydrase 4 [9]): 8.7 nM
SMILES: NS(=O)(=O)c1cccc(N/C=C/C(=O)c2cccs2)c1

- Ki (Carbonic anhydrase 4 [9]): 6.5 nM
SMILES: NS(=O)(=O)c1cccc(N/C=C/C(=O)c2ccc(Br)cc2)c1

- Ki (Carbonic anhydrase 12 [7]): 57.8 nM
- Ki (Carbonic anhydrase 9 [8]): 57.8 nM
SMILES: CCSc1nc2ccccc2c(=O)n1CCc1ccc(S(N)(=O)=O)cc1

- Ki (Carbonic anhydrase 1 [5]): > 100000 nM
- Ki (Carbonic anhydrase 2 [6]): > 100000 nM
SMILES: O=S1(=O)CC=Cc2cc(-c3ccccc3)ccc2O1

- Ki (Carbonic anhydrase 1 [5]): > 100000 nM
- Ki (Carbonic anhydrase 2 [6]): > 100000 nM
SMILES: O=S1(=O)CC=Cc2ccc(-c3ccccc3)cc2O1

- Ki (Carbonic anhydrase 1 [5]): > 100000 nM
- Ki (Carbonic anhydrase 2 [6]): > 100000 nM
SMILES: CCOC(=O)c1ccc(-c2cccc3c2OS(=O)(=O)CC=C3)cc1

- Ki (Carbonic anhydrase 4 [10]): > 10000 nM
- Ki (Carbonic anhydrase 2 [11]): > 10000 nM
- Ki (Carbonic anhydrase 9 [12]): > 10000 nM
- Ki (Carbonic anhydrase 1 [13]): > 10000 nM
SMILES: COC(=O)c1ccc2c(c1)C(=O)N(c1ccc(C(=O)O)cc1)C2=O

- Ki (Carbonic anhydrase 1 [5]): > 100000 nM
- Ki (Carbonic anhydrase 2 [6]): > 100000 nM
SMILES: O=S1(=O)CC=Cc2ccc(-c3ccc(C(F)(F)F)cc3)cc2O1

- Ki (Carbonic anhydrase 4 [10]): > 10000 nM
- Ki (Carbonic anhydrase 2 [11]): > 10000 nM
- Ki (Carbonic anhydrase 9 [12]): > 10000 nM
- Ki (Carbonic anhydrase 1 [13]): > 10000 nM
SMILES: O=C(O)c1ccc2c(c1)C(=O)N(Cc1ccccc1)C2=O

- Ki (Carbonic anhydrase 12 [7]): 57.8 nM
- Ki (Carbonic anhydrase 9 [8]): 57.8 nM
SMILES: CSc1nc2ccccc2c(=O)n1CCc1ccc(S(N)(=O)=O)cc1

- Ki (Carbonic anhydrase 12 [7]): 9.7 nM
- Ki (Carbonic anhydrase 9 [8]): 8.5 nM
SMILES: COc1cc(/C=N/NC(=O)c2ccc(S(N)(=O)=O)cc2)ccc1O

- Ki (Carbonic anhydrase 1 [5]): > 100000 nM
- Ki (Carbonic anhydrase 2 [6]): > 100000 nM
SMILES: COc1ccc(-c2ccc3c(c2)OS(=O)(=O)CC=C3)cc1

- Ki (Carbonic anhydrase 12 [7]): 17.2 nM
- Ki (Carbonic anhydrase 9 [8]): 19.3 nM
SMILES: NS(=O)(=O)c1ccc(CCn2c(SCc3ccccc3)nc3ccccc3c2=O)cc1

- Ki (Carbonic anhydrase 1 [5]): > 100000 nM
- Ki (Carbonic anhydrase 2 [6]): > 100000 nM
SMILES: O=S1(=O)CC=Cc2ccc(-c3ccc(F)cc3)cc2O1

- Ki (Carbonic anhydrase 4 [10]): > 10000 nM
- Ki (Carbonic anhydrase 2 [11]): > 10000 nM
- Ki (Carbonic anhydrase 9 [12]): > 10000 nM
- Ki (Carbonic anhydrase 1 [13]): > 10000 nM
SMILES: COC(=O)c1ccc2c(c1)C(=O)N(CCc1ccccc1)C2=O

- Ki (Carbonic anhydrase 12 [7]): 17.2 nM
- Ki (Carbonic anhydrase 9 [8]): 19.3 nM
SMILES: O=C1c2ccccc2C(=O)N1CCCSc1nc2ccccc2c(=O)n1CCc1ccccc1

- IC50 (Carbonic anhydrase 9 [4]): 643 nM
SMILES: Cc1ncc([N+](=O)[O-])n1CCS(N)(=O)=O

- Ki (Carbonic anhydrase 1 [5]): > 100000 nM
- Ki (Carbonic anhydrase 2 [6]): > 100000 nM
SMILES: COc1ccc(-c2cccc3c2OS(=O)(=O)CC=C3)cc1

- Ki (Carbonic anhydrase 4 [10]): > 10000 nM
- Ki (Carbonic anhydrase 2 [11]): > 10000 nM
- Ki (Carbonic anhydrase 9 [12]): > 10000 nM
- Ki (Carbonic anhydrase 1 [13]): > 10000 nM
SMILES: COC(=O)c1ccc2c(c1)C(=O)N(Cc1ccccc1)C2=O

- Ki (Carbonic anhydrase 4 [9]): 6.5 nM
SMILES: NS(=O)(=O)c1cccc(N/C=C/C(=O)c2ccc([N+](=O)[O-])cc2)c1

- Ki (Carbonic anhydrase 12 [7]): 8.6 nM
- Ki (Carbonic anhydrase 9 [8]): 8.5 nM
SMILES: NS(=O)(=O)c1ccc(C(=O)N/N=C/c2ccc(O)cc2)cc1

- Ki (Carbonic anhydrase 4 [9]): 6.5 nM
- Ki (Carbonic anhydrase 9 [8]): 0.21 nM
SMILES: NS(=O)(=O)c1ccc(N/C=C/C(=O)c2ccco2)cc1

- Ki (Carbonic anhydrase 4 [10]): 317 nM
- Ki (Carbonic anhydrase 2 [11]): 25.9 nM
- Ki (Carbonic anhydrase 9 [12]): 54.1 nM
- Ki (Carbonic anhydrase 1 [13]): 54.1 nM
SMILES: COC(=O)c1ccc2c(c1)C(=O)N(Cc1ccc(S(N)(=O)=O)cc1)C2=O

- Ki (Carbonic anhydrase 4 [9]): 6.5 nM
SMILES: NS(=O)(=O)c1cccc(N/C=C/C(=O)c2ccc(Cl)cc2)c1

- Ki (Carbonic anhydrase 4 [9]): 6.5 nM
- Ki (Carbonic anhydrase 9 [8]): 0.21 nM
SMILES: NS(=O)(=O)c1ccc(N/C=C/C(=O)c2ccc(Cl)cc2)cc1

- Ki (Carbonic anhydrase 4 [9]): 6.5 nM
SMILES: COc1ccc(C(=O)/C=C/Nc2cccc(S(N)(=O)=O)c2)cc1

- Ki (Carbonic anhydrase 12 [14]): > 9 nM
- Ki (Carbonic anhydrase 9 [15]): > 44 nM
- Ki (Carbonic anhydrase 1 [16]): > 230 nM
SMILES: COc1cc(OC)c(C2CC(c3cccs3)=NN2c2ccc(S(N)(=O)=O)cc2)cc1OC (stereo unspecified)
- CC50 (Ca9-22): 6300 nM
